Measurements reported in PubChem BioAssay (NCI).
Where “and” joins values, the source holds several entries; their conditions need not be identical. Equal values may be shown once.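 Values below derive from 48-hour exposures of cells grown in 96-well plates, with endpoints linearly interpolated between the two concentrations bracketing the appropriate inhibition level. GI50 = concentration required for 50% inhibition of growth. TGI: concentration producing complete growth inhibition.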 Where a SMILES comes first, the peptide text is derived from it. [ ]: non-standard residue; d: D form. The star is where a group is joined. ξ: configuration not given here. NMeN = CN[C@@H](CC(N)=O)C(=O)O; NMeV = CN[C@H](C(=O)O)C(C)C; ξNMeV = CNC(C(=O)O)C(C)C; Boc = CC(C)(C)OC(=O)*; ξNMeA = CNC(C)C(=O)O

What was measured:
Assay in all cases: NCI anticancer screen, dose series, 48 h
[1] = tested on: HCT-116 colon
[2] = tested on: TK-10 renal
[3] = tested on: MDA-MB-435
[4] = tested on: UO-31 renal
[5] = tested on: SN12C renal
[6] = tested on: SF-295 CNS
[7] = tested on: PC-3 prostate
[8] = tested on: HOP-92 NSCLC
[9] = tested on: RXF 393 renal
[10] = tested on: HT29 colon

Row | Compound | TGI [1] | TGI [2] | TGI [3] | TGI [4] | TGI [5] | TGI [6] | TGI [7] | TGI [8] | TGI [9] | TGI [10] | GI50 [1] | GI50 [2] | GI50 [4] | GI50 [5] | GI50 [6] | GI50 [8] | GI50 [9] | GI50 [10] | GI50 [3] | GI50 [7]
1 | COc1cc(C(c2cc3c(cc2O)OCO3)N2CCCCC2)cc(OC)c1OC (stereo not given) | 30.4 µM | 31.2 µM | 16.8 µM | 28.3 µM | 25.1 µM | > 100 µM | 30.6 µM | 23.1 µM | 27.6 µM | 33.3 µM | – | – | – | – | – | – | – | – | – | –
2 | CN1CCCCCC(=N\O)/C(=N/O)CCCCC1 | > 100 µM | > 100 µM | > 100 µM | > 100 µM | > 100 µM | > 100 µM | > 100 µM | > 100 µM | > 100 µM | > 100 µM | – | – | – | – | – | – | – | – | – | –
3 | COC(=O)C(C)N(C)C(=O)[C@H](CC(N)=O)N(C)C(=O)[C@@H]1CCCN1C(=O)[C@H](C(C)C)N(C)C(=O)C(C(C)C)N(C)C(=O)[C@@H](NC(=O)OC(C)(C)C)C(C)C (stereo not given in full) (Boc-V[ξNMeV][NMeV]P[NMeN][ξNMeA]-OMe) | 50 µM and > 100 µM | > 100 µM | > 50 µM | 50 µM and > 100 µM | > 100 µM | > 100 µM | 50 µM | > 100 µM | > 50 µM and 96.8 µM | > 100 µM | 39.3 µM | > 100 µM | > 100 µM | > 100 µM | > 100 µM | > 100 µM | 32.6 µM | > 100 µM | – | –
4 | NC(=O)c1ccc2c(-c3ccnc(NCCCO)n3)c(-c3ccc(F)cc3)nn2c1 | > 25 µM | > 25 µM | > 25 µM | > 25 µM | > 25 µM | > 25 µM | > 25 µM | > 25 µM | > 25 µM | > 25 µM | > 25 µM | > 18.6 µM | 5.9 µM | > 25 µM | > 25 µM | > 25 µM | 21.4 µM | > 21.2 µM | > 18.3 µM | > 25 µM
5 | O=c1[nH]ccc2nc(N3CCC(O)CC3)nc(Nc3cccc(C(F)(F)F)c3)c12 | 12.3 µM | 44.9 µM | 3.55 µM | 23 µM | > 100 µM | 7.85 µM | 13 µM | > 100 µM | 23.2 µM | 96.3 µM | 0.88 µM | 5.98 µM | 0.785 µM | 4.07 µM | 2.94 µM | > 100 µM | 1.45 µM | 3.88 µM | 1.29 µM | 2.29 µM
6 | O=C(Nc1ccc(F)cc1F)c1cc(Br)ccc1O | 8.45 µM | > 100 µM | 11.9 µM | 6.01 µM | 9.26 µM | 3.76 µM | 8.35 µM | 3.9 µM | 7.03 µM | > 100 µM | 2.47 µM | 4.83 µM | 1.43 µM | 2.26 µM | 1.9 µM | 0.593 µM | 2.4 µM | 3.53 µM | 2.82 µM | 2.45 µM
7 | O=C(CC12CC3CC(CC(C3)C1)C2)NCCOCCOCCOCCNC(=O)c1cc2c(o1)C(=O)c1ccccc1C2=O | 6.33 µM | 5.78 µM | 0.392 µM | 3.13 µM | 2.26 µM | 2.85 µM | 16.1 µM | 7.3 µM | 2.95 µM | 6.36 µM | 1.87 µM | 3.14 µM | 1.51 µM | 1.03 µM | 1.48 µM | 2.45 µM | 1.55 µM | 2.46 µM | 0.2 µM | 1.79 µM
8 | CC(C)CNc1nc(-c2ccccc2)nc2ccccc12 | 26.7 µM | 26.6 µM | 37.9 µM | 50.5 µM | 38.6 µM | 28.9 µM | 34.8 µM | 28.6 µM | 31.8 µM | – | 13.8 µM | 13.6 µM | 17.3 µM | 18.4 µM | 14.5 µM | 12.3 µM | 12.7 µM | – | 18.5 µM | 17.1 µM
9 | COc1cc2c(cc1OCCCCCCN1CCN(c3ncnc4ccccc34)CC1)N=CC1CCCN1C2=O (stereo not given) | 0.282 µM | 1.88 µM | 0.252 µM | – | 6.47 µM | 1.03 µM | 0.742 µM | 0.408 µM | 0.325 µM | 0.919 µM | 0.055 µM | 0.155 µM | – | 0.155 µM | 0.0508 µM | 0.0456 µM | 0.146 µM | 0.0449 µM | 0.0905 µM | 0.0508 µM
10 | O=C([O][Hg][CH2]C1COCC([CH2][Hg][O]C(=O)c2ccccc2)O1)c1ccccc1 (stereo not given) | 2.93 µM | 31.5 µM | 30.9 µM | 3.39 µM | 32.2 µM | 35.7 µM | 32.4 µM | 4.23 µM | 3.56 µM | – | 1.56 µM | 6.33 µM | 1.82 µM | 7.68 µM | 17.3 µM | 2.25 µM | 1.99 µM | – | 14.2 µM | 15.9 µM
11 | C[C@@H]1N=C(c2ccc(Br)cc2)Nc2nc3ccccn3c2C1=O | > 100 µM | > 100 µM | 7.1 µM | > 100 µM | > 100 µM | – | > 100 µM | 23 µM | 51.7 µM | > 100 µM | 4.04 µM | 21 µM | 8.11 µM | 17.6 µM | – | 1.16 µM | 10.2 µM | 3.73 µM | 1.33 µM | 5.7 µM
